The results in this text go back to patent publication US11739098B2 (BRISTOL-MYERS SQUIBB COMPANY, priority 2017, dated 2023).

The structures appear in SMILES notation. Counter-ions that a name gives are not always drawn.

What all share (assay type): cell-based
For one assay, the target named is T1, human TLR9 (Homo sapiens, UniProt Q9NR96).
T1 construct: host or cells: HEK-Blue cells (HEK293-derived reporter line)
T1 sequence (Q9NR96 26-1032): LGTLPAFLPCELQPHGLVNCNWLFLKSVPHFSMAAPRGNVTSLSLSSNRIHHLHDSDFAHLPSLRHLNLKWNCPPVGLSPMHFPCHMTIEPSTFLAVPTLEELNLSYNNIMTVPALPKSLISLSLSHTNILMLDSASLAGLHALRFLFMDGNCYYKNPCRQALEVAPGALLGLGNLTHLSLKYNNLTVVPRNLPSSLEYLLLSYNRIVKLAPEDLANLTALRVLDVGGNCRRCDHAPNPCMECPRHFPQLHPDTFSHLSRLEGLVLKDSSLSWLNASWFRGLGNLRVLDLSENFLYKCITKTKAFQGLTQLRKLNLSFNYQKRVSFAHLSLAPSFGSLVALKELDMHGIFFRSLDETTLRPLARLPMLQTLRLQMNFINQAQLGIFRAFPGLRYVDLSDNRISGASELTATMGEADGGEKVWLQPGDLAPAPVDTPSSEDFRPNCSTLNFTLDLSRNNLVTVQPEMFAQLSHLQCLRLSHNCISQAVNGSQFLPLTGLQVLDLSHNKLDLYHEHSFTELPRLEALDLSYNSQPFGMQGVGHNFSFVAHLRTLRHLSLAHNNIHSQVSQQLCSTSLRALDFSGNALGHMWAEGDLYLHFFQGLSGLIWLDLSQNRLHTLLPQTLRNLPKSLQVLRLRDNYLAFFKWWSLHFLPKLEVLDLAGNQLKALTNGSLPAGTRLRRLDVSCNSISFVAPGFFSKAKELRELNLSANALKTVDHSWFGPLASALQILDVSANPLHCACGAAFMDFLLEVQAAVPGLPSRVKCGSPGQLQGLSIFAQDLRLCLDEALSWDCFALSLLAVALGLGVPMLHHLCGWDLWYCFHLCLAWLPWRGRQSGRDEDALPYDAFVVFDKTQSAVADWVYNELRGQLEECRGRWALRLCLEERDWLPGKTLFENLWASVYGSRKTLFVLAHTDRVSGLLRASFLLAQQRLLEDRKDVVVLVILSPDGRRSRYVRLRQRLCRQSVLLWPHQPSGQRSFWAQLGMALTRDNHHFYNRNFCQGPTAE
Description: TLR9 inhibition reporter assay (HEK-Blue cells, SEAP reporter, ODN2006 stimulation). The note with it: HEK-Blue cells overexpressing human TLR9, SEAP reporter, ODN2006 5 nM. In outline: (§1)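 HEK-Blue cells overexpressing the receptor, with NF-κB/AP-1-driven SEAP, were pre-treated 30 min at room temperature with compound (0.05 nM–50 μM), then stimulated with gardiquimod 7.5 μM (TLR7), R848 15.9 μM (TLR8) or ODN2006 5 nM (TLR9). SEAP was read after 22 h at 37 °C as percent inhibition.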
A general note: A reporter such as luciferase makes a cellular process visible.

The next assay concerns the target T2, human TLR8 (Homo sapiens, UniProt Q9NR97).
T2 construct: host or cells: HEK-Blue cells (HEK293-derived reporter line)
T2 sequence (Q9NR97 27-1041): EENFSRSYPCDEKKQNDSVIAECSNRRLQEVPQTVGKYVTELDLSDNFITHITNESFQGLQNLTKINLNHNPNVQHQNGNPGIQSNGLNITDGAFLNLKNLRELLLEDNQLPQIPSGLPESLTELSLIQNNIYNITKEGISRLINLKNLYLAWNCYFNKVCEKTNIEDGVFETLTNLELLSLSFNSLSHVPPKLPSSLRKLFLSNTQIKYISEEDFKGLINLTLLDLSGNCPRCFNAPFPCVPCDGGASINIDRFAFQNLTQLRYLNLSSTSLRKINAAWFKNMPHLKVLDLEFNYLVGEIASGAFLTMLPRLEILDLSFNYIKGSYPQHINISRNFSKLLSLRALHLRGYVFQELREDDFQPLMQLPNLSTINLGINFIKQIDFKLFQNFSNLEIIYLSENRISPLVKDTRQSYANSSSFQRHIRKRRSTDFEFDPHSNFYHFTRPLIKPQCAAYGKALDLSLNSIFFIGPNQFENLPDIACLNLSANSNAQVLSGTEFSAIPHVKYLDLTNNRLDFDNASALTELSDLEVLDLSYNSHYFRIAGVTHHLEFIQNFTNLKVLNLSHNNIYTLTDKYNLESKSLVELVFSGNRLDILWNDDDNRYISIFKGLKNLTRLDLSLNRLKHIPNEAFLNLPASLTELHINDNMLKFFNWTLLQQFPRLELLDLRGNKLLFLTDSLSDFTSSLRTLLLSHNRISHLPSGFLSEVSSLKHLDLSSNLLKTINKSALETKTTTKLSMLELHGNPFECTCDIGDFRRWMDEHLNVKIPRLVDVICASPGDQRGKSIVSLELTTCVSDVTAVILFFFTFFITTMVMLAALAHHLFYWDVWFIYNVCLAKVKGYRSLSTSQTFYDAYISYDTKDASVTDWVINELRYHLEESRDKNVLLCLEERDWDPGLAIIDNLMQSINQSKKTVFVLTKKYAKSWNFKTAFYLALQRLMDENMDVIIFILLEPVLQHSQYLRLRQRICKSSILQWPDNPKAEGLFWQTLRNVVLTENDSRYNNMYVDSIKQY
Description: TLR8 inhibition reporter assay (HEK-Blue cells, SEAP reporter, R848 stimulation). The conditions noted are these: HEK-Blue cells overexpressing human TLR8, SEAP reporter, R848 15.9 μM. The gist of the method:
as §1

The target of a further assay is T3, human TLR7 (Homo sapiens, UniProt Q9NYK1).
T3 construct: host or cells: HEK-Blue cells (HEK293-derived reporter line)
T3 sequence (Q9NYK1 27-1049): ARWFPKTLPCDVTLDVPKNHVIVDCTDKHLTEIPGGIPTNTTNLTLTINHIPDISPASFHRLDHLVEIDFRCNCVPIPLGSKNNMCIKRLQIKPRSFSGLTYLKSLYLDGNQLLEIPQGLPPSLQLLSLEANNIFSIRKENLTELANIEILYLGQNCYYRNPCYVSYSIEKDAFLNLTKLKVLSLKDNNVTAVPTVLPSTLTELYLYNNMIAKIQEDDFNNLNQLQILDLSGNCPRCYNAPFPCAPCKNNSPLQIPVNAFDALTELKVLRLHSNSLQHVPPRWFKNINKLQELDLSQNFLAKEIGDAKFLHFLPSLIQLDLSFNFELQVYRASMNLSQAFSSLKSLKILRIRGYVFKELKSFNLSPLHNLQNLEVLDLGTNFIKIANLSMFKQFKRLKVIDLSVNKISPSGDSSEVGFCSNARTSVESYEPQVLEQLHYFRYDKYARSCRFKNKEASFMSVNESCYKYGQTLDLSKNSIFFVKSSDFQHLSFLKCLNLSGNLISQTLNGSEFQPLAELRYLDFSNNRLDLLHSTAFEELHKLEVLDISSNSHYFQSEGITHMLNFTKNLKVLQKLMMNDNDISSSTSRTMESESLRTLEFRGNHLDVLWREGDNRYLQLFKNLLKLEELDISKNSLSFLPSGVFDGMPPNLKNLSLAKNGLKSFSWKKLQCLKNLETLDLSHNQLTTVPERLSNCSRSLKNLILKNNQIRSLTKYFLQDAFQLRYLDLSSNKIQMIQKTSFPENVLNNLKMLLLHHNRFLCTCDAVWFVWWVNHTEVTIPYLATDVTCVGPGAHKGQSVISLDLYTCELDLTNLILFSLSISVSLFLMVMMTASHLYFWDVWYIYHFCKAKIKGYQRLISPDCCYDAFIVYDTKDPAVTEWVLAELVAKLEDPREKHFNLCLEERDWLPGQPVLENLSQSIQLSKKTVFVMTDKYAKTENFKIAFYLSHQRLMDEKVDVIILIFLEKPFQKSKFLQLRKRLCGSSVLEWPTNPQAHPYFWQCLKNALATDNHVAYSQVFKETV
Briefly: TLR7 inhibition reporter assay (HEK-Blue cells, SEAP reporter, gardiquimod stimulation). The conditions noted are these: HEK-Blue cells overexpressing human TLR7, SEAP reporter, gardiquimod 7.5 μM. The gist of the method:
as §1

One may read the IC50 as the concentration at which inhibition is half-maximal. Regarding `Cc1cn2cc(-c3[nH]c4ccc(C5CCN(C(=O)CN(C)C)CC5)cc4c3CC(F)F)ccc2n1` [Example 551, 1-(4-(3-(2,2-difluoroethyl)-2-(2-methylimidazo[1,2-a]pyridin-6-yl)-1H-indol-5-yl)piperidin-1-yl)-2-(dimethylamino)ethan-1-one], the IC50 is 100 to 1000 nM at human TLR9, more than 3130 nM on human TLR8 and less than 100 nM against human TLR7.
For `Cc1cc2cc(-c3[nH]c4ccc(C5CCN(CC(C)(C)O)CC5)cc4c3C(C)C)cc(CC(C)C)n2n1` [Example 770, 1-(4-(2-(7-isobutyl-2-methylpyrazolo[1,5-a]pyridin-5-yl)-3-isopropyl-1H-indol-5-yl)piperidin-1-yl)-2-methylpropan-2-ol] the same measures were 1000 to 50000 nM, more than 3130 nM and more than 3130 nM.
In the case of `Cc1cc(-c2[nH]c3ccc(C4CCN(C(=O)CCN(C)C(C)C)CC4)cc3c2C(C)C)cn2nnnc12` [Example 624, 3-(isopropyl(methyl)amino)-1-(4-(3-isopropyl-2-(8-methyltetrazolo[1,5-a]pyridin-6-yl)-1H-indol-5-yl)piperidin-1-yl)propan-1-one], the IC50 against human TLR9 was 100 to 1000 nM; at human TLR8 it was less than 100 nM; on human TLR7 it was less than 100 nM.
On to `Cc1nc[nH]c1CN1CCC(c2ccc3[nH]c(-c4ccnc5[nH]nc(C)c45)c(C(C)C)c3c2)CC1` [Example 874, 4-(3-isopropyl-5-(1-((4-methyl-1H-imidazol-5-yl)methyl)piperidin-4-yl)-1H-indol-2-yl)-3-methyl-1H-pyrazolo[3,4-b]pyridine], for which the half-inhibitory concentration (IC50) on human TLR9 is 100 to 1000 nM; at human TLR8 it was less than 100 nM; against human TLR7 it was less than 100 nM.
`COc1cc(-c2[nH]c3ccc(C4CCN(C(=O)CN(C)C)CC4)cc3c2C(C)C)cc2nc(C)nn12` [Example 496, 2-(dimethylamino)-1-(4-(3-isopropyl-2-(5-methoxy-2-methyl-[1,2,4]triazolo[1,5-a]pyridin-7-yl)-1H-indol-5-yl)piperidin-1-yl)ethan-1-one]: the IC50 on human TLR9 is 1000 to 50000 nM; at human TLR8 it was less than 100 nM; against human TLR7, less than 100 nM.
As to `CC(C)c1c(-c2ccnc3[nH]ncc23)[nH]c2ccc(C3CCN(Cc4ccc(OCCCN(C)C)cc4)CC3)cc12` [Example 965, 3-(4-((4-(3-isopropyl-2-(1H-pyrazolo[3,4-b]pyridin-4-yl)-1H-indol-5-yl)piperidin-1-yl)methyl)phenoxy)-N,N-dimethylpropan-1-amine], the values for the IC50 on human TLR9, against human TLR8 and at human TLR7 were 100 to 1000 nM, less than 100 nM and less than 100 nM, respectively.
For `Cc1cc(-c2[nH]c3ccc(C4CCN(CC(C)(C)O)CC4)cc3c2C(C)C)cn2nnnc12` [Example 745, 1-(4-(3-isopropyl-2-(8-methyltetrazolo[1,5-a]pyridin-6-yl)-1H-indol-5-yl)piperidin-1-yl)-2-methylpropan-2-ol, TFA], the half-inhibitory concentration (IC50) on human TLR9 is 1000 to 50000 nM; against human TLR8, less than 100 nM; on human TLR7, less than 100 nM.
As for `Cc1cc(-c2[nH]c3ccc(C4CCN(Cc5ncn(C)n5)CC4)cc3c2C(C)C)cn2nnnc12` [Example 885, 6-(3-isopropyl-5-(1-((1-methyl-1H-1,2,4-triazol-3-yl)methyl)piperidin-4-yl)-1H-indol-2-yl)-8-methyltetrazolo[1,5-a]pyridine], the figures for the half-maximal inhibitory concentration (IC50) against human TLR9, on human TLR8 and against human TLR7 were 1000 to 50000 nM, less than 100 nM and less than 100 nM, respectively.
For `Cc1c(-c2[nH]c3ccc(C4CCN(CC(C)(C)O)CC4)cc3c2C(C)C)ccc2c1cnn2C` [Example 763, 1-(4-(2-(1,4-dimethyl-1H-indazol-5-yl)-3-isopropyl-1H-indol-5-yl)piperidin-1-yl)-2-methylpropan-2-ol], the figures for the concentration for half-maximal inhibition (IC50) on human TLR9, at human TLR8 and against human TLR7 were 1000 to 50000 nM, less than 100 nM and less than 100 nM, respectively.
As to `Cc1cc(-c2[nH]c3ccc(C4CCN(C(=O)CN(C)C)CC4)cc3c2C(C)C)cc2nccnc12` [Example 518, 2-(dimethylamino)-1-(4-(3-isopropyl-2-(8-methylquinoxalin-6-yl)-1H-indol-5-yl)piperidin-1-yl)ethan-1-one], the values for the concentration for half-maximal inhibition (IC50) against human TLR9, at human TLR8 and against human TLR7 were 1000 to 50000 nM, less than 100 nM and less than 100 nM, respectively.
In the case of `CC(C)c1c(-c2ccc3nccn3c2)[nH]c2ccc(C3CCNCC3)cc12` [Example 188, 6-(3-isopropyl-5-(piperidin-4-yl)-1H-indol-2-yl)imidazo[1,2-a]pyridine], the IC50 is 100 to 1000 nM against human TLR9, 100 to 1000 nM against human TLR8 and less than 100 nM against human TLR7.
As for `CC(C)c1c(-c2cnc3ncnn3c2)[nH]c2ccc(C3CCN(CC(=O)N(C)C)CC3)cc12` [Example 422, 2-(4-(2-([1,2,4]triazolo[1,5-a]pyrimidin-6-yl)-3-isopropyl-1H-indol-5-yl)piperidin-1-yl)-N,N-dimethylacetamide], the half-inhibitory concentration (IC50) on human TLR9 was 1000 to 50000 nM; against human TLR8 it was 100 to 1000 nM; against human TLR7 it was less than 100 nM.
